In patent publication US11254688B2 (Boehringer Ingelheim International GmbH, priority 2018, dated 2022):

What follows are compounds tested against T1, hGOAT (Homo sapiens, UniProt Q96T53) (assay: Determination of hGOAT activity in HEK293 cells after incubation with test compound (acyl-ghrelin ELISA)). Conditions: HEK293 cells stably transfected with preproghrelin and human GOAT; octanoate-BSA 100 μM; 5 hours incubation; acyl-ghrelin in medium by ELISA; 8 compound concentrations.
T1 construct: expressed in transfected cells; host or cells: HEK293 (Hek293 hGOAT/PPGhrl Clone #1B8)
T1 sequence (Q96T53 1-435): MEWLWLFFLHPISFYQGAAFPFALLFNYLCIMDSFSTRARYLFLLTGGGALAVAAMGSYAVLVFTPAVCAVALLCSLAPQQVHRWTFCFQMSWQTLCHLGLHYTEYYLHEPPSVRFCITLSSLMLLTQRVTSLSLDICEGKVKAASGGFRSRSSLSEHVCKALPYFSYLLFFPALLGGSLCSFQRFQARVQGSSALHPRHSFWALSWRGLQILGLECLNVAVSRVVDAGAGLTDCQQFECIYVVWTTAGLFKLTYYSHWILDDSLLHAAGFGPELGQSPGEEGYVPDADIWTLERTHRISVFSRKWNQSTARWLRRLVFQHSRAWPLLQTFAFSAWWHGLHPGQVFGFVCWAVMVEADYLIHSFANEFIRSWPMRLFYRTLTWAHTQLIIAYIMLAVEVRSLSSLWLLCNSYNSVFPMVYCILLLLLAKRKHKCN
Format: cell-based
Experimental: Determination of hGOAT Activity in HEK293 Cells after Incubation with Test Compound
HEK293 cells stably transfected with two expression vectors, one coding for preproghrelin cDNA and a second for the expression of human GOATcDNA are used as a cellular model. After feeding the cells with octanoic acid for 5 hours, acyl-ghrelin is measured in cell culture medium by an ELISA procedure.
Cellline: Hek293 hGOAT/PPGhrl Clone #1B8Sodium octanoate, Sigma, Cat.-No. C5038
BD Poly-D-Lysin 384-well Plates, black-clear polystyrene BD Bioscience Cat.-No. […] ELISA human acylated Ghrelin Kit purchased from Bertin Pharman (detailed composition of buffers e.g. wash-puffer, ELISA buffer not known)
Cells are plated with a density of 5000 cells/well in 384-well poly-D-lysin plates and incubated for 1 day at 37° C., 5% CO2 in DMEM medium, 10% FCS, 1×NEAA, Puromycin (0.5 μg/ml) and G418 (1 mg/ml). Then the medium is changed to a identical medium without FCS and containing Octanoate-BSA (final concentration 100 μM each) and compound in DMSO (final DMSO concentration 0,3%). After incubation for 5 hours acylghrelin in the medium is measured by ELISA.
The medium sample is diluted 1:25 in Elisa buffer, a 25 μl aliquot is transferred to a 384-well ELISA plate previously washed 4 times with 100 μL wash buffer, and 25 μl tracer-solution is added. After incubation overnight (˜20 h) at 4° C. temperature the plate is washed 4 times with 100 μl wash-buffer per well. Finally 50 μl Ellman's reagent is added to each well and the plate is incubated in the dark for 20 minutes. The absorbance is measured at 405 nm in an Envision multilabel reader and the amount of acylated ghrelin is calculated according to a acylated ghrelin standard curve provided in the same plate.
The analysis of the data is performed by calculation of the percentage of acyl-ghrelin produced in the presence of test compound compared to the amount of acyl-ghrelin produced in the vehicle control samples. An inhibitor of the GOAT enzyme will give values between 100% CTL (no inhibition) and 0% CTL (complete inhibition).
IC50 values are calculated with Assay Explorer or other suited software based on curve fitting of results of 8 different compound concentrations.
In the case of `Cc1nc2nonc2c(N)c1Cc1ccc(F)c(F)c1` [Compound 4.0, 6-[(3,4-Difluorophenyl)methyl]-5-methyl-[1,2,5]oxadiazolo[3,4-b]pyridin-7-amine], the IC50 is reported as 0.494 nM.
`Cc1nc2nonc2c(N)c1Cc1ccc(C2(C(N)=O)CC2)nc1` [Compound 19.1, 1-[5-({7-Amino-5-methyl-[1,2,5]oxadiazolo[3,4-b]pyridin-6-yl}methyl)pyridin-2-yl]cyclopropane-1-carboxamide] showed an IC50 of 4.53 nM.
`Cc1nc2nonc2c(N)c1Cc1ccc(OC(F)(F)F)nc1` [Compound 4.58, 5-Methyl-6-{[6-(trifluoromethoxy)pyridin-3-yl]methyl}-[1,2,5]oxadiazolo[3,4-b]pyridin-7-amine] gave an IC50 of 0.752 nM.
Compound `Cc1nc2nonc2c(N)c1Cc1cccc(C(F)(F)F)c1` [Compound 4.38, 5-Methyl-6-{[3-(trifluoromethyl)phenyl]methyl}-[1,2,5]oxadiazolo[3,4-b]pyridin-7-amine] has an IC50 of 0.268 nM.
Work on `Cc1nc2nonc2c(N)c1Cc1ccc(C(=O)NCC(C)O)cc1` (stereo not shown) [Compound 14.15, 4-({7-Amino-5-methyl-[1,2,5]oxadiazolo[3,4-b]pyridin-6-yl}methyl)-N-(2-hydroxypropyl)benzamide] yielded an IC50 of 5.12 nM.
`Cc1nc2nonc2c(N)c1Cc1ccc(-c2c[nH]nc2C(F)(F)F)nc1` [Compound 12.10, 5-Methyl-6-({6-[3-(trifluoromethyl)-1H-pyrazol-4-yl]pyridin-3-yl}methyl)-[1,2,5]oxadiazolo[3,4-b]pyridin-7-amine] showed an IC50 of 0.437 nM.
`Cc1nc2nonc2c(N)c1Cc1ccc([S+](C)[O-])cc1` (stereo not shown) [Compound 18.1, 6-[(4-Methanesulfinylphenyl)methyl]-5-methyl-[1,2,5]oxadiazolo[3,4-b]pyridin-7-amine] showed an IC50 of 0.921 nM.
With `Cc1nc2nonc2c(N)c1Cc1cccc(Br)c1` [Compound 2.6, 6-[(3-Bromophenyl)methyl]-5-methyl-[1,2,5]oxadiazolo[3,4-b]pyridin-7-amine] the IC50 was 1.4 nM.
For `Cc1nc2nonc2c(N)c1Cc1cccc2c1cnn2C` [Compound 2.13, 5-Methyl-6-[(1-methyl-1H-indazol-4-yl)methyl]-[1,2,5]oxadiazolo[3,4-b]pyridin-7-amine], the IC50 was 0.66 nM.
Work on `Cc1nc2nonc2c(N)c1Cc1ccc(OC(F)(F)F)cc1` [Compound 1.2, 5-Methyl-6-{[4-(trifluoromethoxy)phenyl]methyl}-[1,2,5]oxadiazolo[3,4-b]pyridin-7-amine] yielded an IC50 of 0.387 nM.
For `Cc1nc2nonc2c(N)c1Cc1cccc(OCF)c1` [Compound 8.1, 6-{[3-(Fluoromethoxy)phenyl]methyl}-5-methyl-[1,2,5]oxadiazolo[3,4-b]pyridin-7-amine], the IC50 was 1.09 nM.
With `Cc1nc2nonc2c(N)c1Cc1ccc(C#N)c(OCC2(C(F)(F)F)CC2)c1` [Compound 21.7, 4-({7-Amino-5-methyl-[1,2,5]oxadiazolo[3,4-b]pyridin-6-yl}methyl)-2-{[1-(trifluoromethyl)cyclopropyl]methoxy}benzonitrile] the IC50 was 0.278 nM.
With `Cc1nc2nonc2c(N)c1Cc1ccc(C(=O)NCc2cnccn2)cc1` [Compound 14.8, 4-({7-Amino-5-methyl-[1,2,5]oxadiazolo[3,4-b]pyridin-6-yl}methyl)-N-[(pyrazin-2-yl)methyl]benzamide] the IC50 was 3.64 nM.
`Cc1nc2nonc2c(N)c1Cc1ccc(C#N)c(C#N)c1` [Compound 4.59, 4-({7-Amino-5-methyl-[1,2,5]oxadiazolo[3,4-b]pyridin-6-yl}methyl)benzene-1,2-dicarbonitrile] was tested, and the IC50 was 2.51 nM.
With `Cc1nc2nonc2c(N)c1Cc1ccc(C#N)c(OC2CCN(C)C2)c1` (stereo not shown) [Compound 21.8, 4-(7-Amino-5-methyl-[1,2,5]oxadiazolo[3,4-b]pyridin-6-ylmethyl)-2-(1-methyl-pyrrolidin-3-yloxy)-benzonitrile] the IC50 was 1.09 nM.
`Cc1nc2nonc2c(N)c1Cc1ccc(OC(F)(F)F)c(C(N)=O)c1` [Compound 15.2, 5-({7-Amino-5-methyl-[1,2,5]oxadiazolo[3,4-b]pyridin-6-yl}methyl)-2-(trifluoromethoxy)benzamide] was tested, and the IC50 was 0.096 nM.
`Cc1nc2nonc2c(N)c1Cc1ccc(C#N)c(OCC2CC2(F)F)c1` (stereo not shown) [Compound 21.5, 4-({7-Amino-5-methyl-[1,2,5]oxadiazolo[3,4-b]pyridin-6-yl}methyl)-2-[(2,2-difluorocyclopropyl)methoxy]benzonitrile] was tested, and the IC50 was 0.198 nM.
Compound `Cc1nc2nonc2c(N)c1Cc1ccc(C(C)(C)C#N)nc1` [Compound 4.24, 2-[5-({7-Amino-5-methyl-[1,2,5]oxadiazolo[3,4-b]pyridin-6-yl}methyl)pyridin-2-yl]-2-methylpropanenitrile] has an IC50 of 0.838 nM.
For `CCC(C#N)(CC)c1ccc(Cc2c(C)nc3nonc3c2N)cn1` [Compound 4.25, 2-[5-({7-Amino-5-methyl-[1,2,5]oxadiazolo[3,4-b]pyridin-6-yl}methyl)pyridin-2-yl]-2-ethylbutanenitrile], the IC50 was 0.081 nM.
In the case of `Cc1nc2nonc2c(N)c1Cc1ccc(OC(F)(F)F)c(N=S(C)(C)=O)c1` [Compound 13.2, {[5-({7-Amino-5-methyl-[1,2,5]oxadiazolo[3,4-b]pyridin-6-yl}methyl)-2-(trifluoromethoxy)phenyl]imino}dimethyl-λ^6-sulfanone], the IC50 is reported as 0.033 nM.
For `COc1ccc(Cc2c(C)nc3nonc3c2N)cn1` [Compound 4.3, 6-[(6-Methoxypyridin-3-yl)methyl]-5-methyl-[1,2,5]oxadiazolo[3,4-b]pyridin-7-amine], the IC50 was 1.58 nM.
Compound `Cc1nc2nonc2c(N)c1Cc1ccccc1` [Compound 2.16, 6-Benzyl-5-methyl-[1,2,5]oxadiazolo[3,4-b]pyridin-7-amine] has an IC50 of 3.03 nM.
`COc1cc(Cc2c(C)nc3nonc3c2N)ccc1C#N` [Compound 2.5, 4-({7-Amino-5-methyl-[1,2,5]oxadiazolo[3,4-b]pyridin-6-yl}methyl)-2-methoxybenzonitrile] showed an IC50 of 0.402 nM.
In the case of `Cc1nc2nonc2c(N)c1Cc1cccn2cnnc12` [Compound 4.11, 5-Methyl-6-({[1,2,4]triazolo[4,3-a]pyridin-8-yl}methyl)-[1,2,5]oxadiazolo[3,4-b]pyridin-7-amine], the IC50 is reported as 3.42 nM.
Work on `Cc1nc2nonc2c(N)c1Cc1ccc(C(F)(F)F)c(C(N)=O)c1` [Compound 19.7, 5-({7-Amino-5-methyl-[1,2,5]oxadiazolo[3,4-b]pyridin-6-yl}methyl)-2-(trifluoromethyl) benzamide] yielded an IC50 of 7.97 nM.
With `Nc1c(Cc2ccc(Br)cc2)c(Cl)nc2nonc12` [Compound 23.1, 6-[(4-Bromophenyl)methyl]-5-chloro-[1,2,5]oxadiazolo[3,4-b]pyridin-7-amine] the IC50 was 0.485 nM.
`Cc1nc2nonc2c(N)c1Cc1ccc(-c2ccsc2C#N)nc1` [Compound 12.3, 3-[5-(7-Amino-5-methyl-[1,2,5]oxadiazolo[3,4-b]pyridin-6-ylmethyl)-pyridin-2-yl]-thiophene-2-carbonitrile] showed an IC50 of 0.509 nM.
`Cc1nc2nonc2c(N)c1Cc1ccc(C(F)(F)F)c(C#N)c1` [Compound 4.57, 5-({7-Amino-5-methyl-[1,2,5]oxadiazolo[3,4-b]pyridin-6-yl}methyl)-2-(trifluoromethyl)benzonitrile] showed an IC50 of 0.121 nM.
Compound `COc1cc(Cc2c(Cl)nc3nonc3c2N)ccc1C(F)(F)F` [Compound 23.4, 5-Chloro-6-{[3-methoxy-4-(trifluoromethyl)phenyl]methyl}-[1,2,5]oxadiazolo[3,4-b]pyridin-7-amine] has an IC50 of 0.139 nM.
`Cc1nc2nonc2c(N)c1Cc1ccc(-c2cncn2C)nc1` [Compound 12.8, 5-Methyl-6-{[6-(1-methyl-1H-imidazol-5-yl)pyridin-3-yl]methyl}-[1,2,5]oxadiazolo[3,4-b]pyridin-7-amine] gave an IC50 of 0.531 nM.
Work on `Cc1nc2nonc2c(N)c1Cc1ccc(C(=O)NCc2ccnnc2)cc1` [Compound 14.14, 4-({7-Amino-5-methyl-[1,2,5]oxadiazolo[3,4-b]pyridin-6-yl}methyl)-N-[(pyridazin-4-yl)methyl]benzamide] yielded an IC50 of 5.55 nM.
